The record followed here is ChEMBL document CHEMBL5728472, “Triazolopyrimidine, triazolopyridine compounds, and the composition thereof for treating PRC2-mediated diseases” (2021).

This assay addresses Histone-binding protein RBBP4/Histone-lysine N-methyltransferase EZH2/Polycomb protein EED/Polycomb protein SUZ12 (Homo sapiens, UniProt O75530+Q09028+Q15022+Q15910). As to the kind of experiment: TR-FRET Assay: The TR-FRET method was used to measure the PRC2 enzyme activity. First, the enzyme was mixed with compounds at different concentrations and incubated for 30 min at room temperature. The biotin-labeled histone H3 peptide substrate and the cofactor S-adenosylmethionine (SAM) were added to initiate the enzymatic reaction. After reaction was performed at room temperature for 4 hour, Acceptor and Donor were added and incubated for half an hour. The multifunctional microplate reader EnVision (Perkin Elmer Inc.) was used to detect the fluorescence signal. The class given is protein-complex assay.

Sequence of Histone-binding protein RBBP4/Histone-lysine N-methyltransferase EZH2/Polycomb protein EED/Polycomb protein SUZ12 (Q15910 whole entry): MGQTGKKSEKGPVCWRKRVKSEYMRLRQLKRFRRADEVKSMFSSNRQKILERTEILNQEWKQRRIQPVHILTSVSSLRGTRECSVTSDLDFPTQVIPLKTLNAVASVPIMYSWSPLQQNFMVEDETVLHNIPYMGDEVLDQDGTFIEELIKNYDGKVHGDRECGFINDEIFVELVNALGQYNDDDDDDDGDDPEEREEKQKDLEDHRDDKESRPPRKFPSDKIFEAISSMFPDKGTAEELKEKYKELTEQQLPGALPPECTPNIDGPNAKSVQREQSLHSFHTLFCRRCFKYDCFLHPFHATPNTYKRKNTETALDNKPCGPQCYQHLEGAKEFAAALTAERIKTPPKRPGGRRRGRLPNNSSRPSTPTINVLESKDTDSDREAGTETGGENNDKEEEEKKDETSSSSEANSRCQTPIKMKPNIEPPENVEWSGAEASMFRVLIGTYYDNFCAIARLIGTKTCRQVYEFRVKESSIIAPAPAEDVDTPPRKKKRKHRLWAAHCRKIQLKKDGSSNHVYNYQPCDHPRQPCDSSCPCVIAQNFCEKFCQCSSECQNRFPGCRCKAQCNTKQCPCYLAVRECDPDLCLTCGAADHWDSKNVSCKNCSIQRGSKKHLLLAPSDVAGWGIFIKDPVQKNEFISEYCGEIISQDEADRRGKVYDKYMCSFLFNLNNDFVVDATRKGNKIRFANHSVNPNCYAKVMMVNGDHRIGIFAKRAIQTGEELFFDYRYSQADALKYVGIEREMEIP
Sequence of Histone-binding protein RBBP4/Histone-lysine N-methyltransferase EZH2/Polycomb protein EED/Polycomb protein SUZ12 (O75530 whole entry): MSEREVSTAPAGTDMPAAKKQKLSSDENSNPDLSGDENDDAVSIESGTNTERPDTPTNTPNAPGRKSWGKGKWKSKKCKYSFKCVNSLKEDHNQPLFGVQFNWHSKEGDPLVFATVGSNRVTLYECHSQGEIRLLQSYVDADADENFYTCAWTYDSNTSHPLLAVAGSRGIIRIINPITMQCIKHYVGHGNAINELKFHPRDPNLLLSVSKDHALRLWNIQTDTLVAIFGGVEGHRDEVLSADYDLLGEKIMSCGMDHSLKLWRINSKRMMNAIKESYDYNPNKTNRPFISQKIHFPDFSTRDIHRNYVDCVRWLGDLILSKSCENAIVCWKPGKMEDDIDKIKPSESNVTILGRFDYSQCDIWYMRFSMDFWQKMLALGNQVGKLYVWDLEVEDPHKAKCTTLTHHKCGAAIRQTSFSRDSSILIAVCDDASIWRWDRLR
Sequence of Histone-binding protein RBBP4/Histone-lysine N-methyltransferase EZH2/Polycomb protein EED/Polycomb protein SUZ12 (Q15022 whole entry): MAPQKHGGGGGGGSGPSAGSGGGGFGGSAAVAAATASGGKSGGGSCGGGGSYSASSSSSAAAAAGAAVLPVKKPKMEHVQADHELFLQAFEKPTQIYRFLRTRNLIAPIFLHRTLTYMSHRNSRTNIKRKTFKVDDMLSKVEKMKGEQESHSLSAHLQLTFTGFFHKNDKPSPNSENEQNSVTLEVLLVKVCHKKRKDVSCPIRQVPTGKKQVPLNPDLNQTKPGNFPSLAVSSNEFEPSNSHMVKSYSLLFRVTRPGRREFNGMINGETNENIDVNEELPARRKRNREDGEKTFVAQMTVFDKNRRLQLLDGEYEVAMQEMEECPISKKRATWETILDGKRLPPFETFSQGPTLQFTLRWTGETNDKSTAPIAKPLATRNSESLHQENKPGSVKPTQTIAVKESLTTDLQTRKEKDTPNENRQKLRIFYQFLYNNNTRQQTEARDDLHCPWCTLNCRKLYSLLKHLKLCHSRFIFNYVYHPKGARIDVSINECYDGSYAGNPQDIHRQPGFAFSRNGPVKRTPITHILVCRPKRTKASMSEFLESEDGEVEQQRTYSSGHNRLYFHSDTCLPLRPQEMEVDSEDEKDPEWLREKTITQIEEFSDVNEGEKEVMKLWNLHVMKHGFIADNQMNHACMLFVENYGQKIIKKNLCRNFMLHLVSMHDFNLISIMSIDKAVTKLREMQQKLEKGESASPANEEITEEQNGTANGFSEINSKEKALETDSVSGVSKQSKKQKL
Sequence of Histone-binding protein RBBP4/Histone-lysine N-methyltransferase EZH2/Polycomb protein EED/Polycomb protein SUZ12 (Q09028 whole entry): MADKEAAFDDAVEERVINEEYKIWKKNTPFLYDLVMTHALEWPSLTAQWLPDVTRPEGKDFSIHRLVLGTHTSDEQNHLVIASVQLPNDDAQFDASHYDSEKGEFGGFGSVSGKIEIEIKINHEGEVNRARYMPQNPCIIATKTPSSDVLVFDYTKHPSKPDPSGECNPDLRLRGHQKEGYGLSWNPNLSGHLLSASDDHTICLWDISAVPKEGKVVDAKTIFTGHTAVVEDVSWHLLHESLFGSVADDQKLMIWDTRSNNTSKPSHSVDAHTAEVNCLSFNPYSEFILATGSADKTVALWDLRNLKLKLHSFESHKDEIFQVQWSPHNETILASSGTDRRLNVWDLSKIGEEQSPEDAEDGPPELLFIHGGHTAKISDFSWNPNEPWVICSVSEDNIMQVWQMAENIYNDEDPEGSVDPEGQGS

Regarding `COC(=O)N1CC=C(c2cnc(NCc3c(F)ccc4c3CCO4)n3cnnc23)CC1`, the IC50 stood at 2.5 nM.
Under `Fc1ccc2c(c1CNc1ncc(C3=CCNCC3)c3nncn13)CCO2` stands 218 nM.
